According to US10722503B2, “Glitazones for topical application” (priority 2017, dated 2020):

Legend:
keratosis pilaris (KP) = test: Topical treatment of keratosis pilaris (KP) in patients, severity grading; format: in vivo, human; conditions: formulation similar to that of Example 1, glitazone substituted for pioglitazone
Text: Prior to treatment, the severity of the KP condition was graded. […]

SEB-1 sebocytes = test: In vitro treatment of cultured sebocytes, intracellular lipids (ADIPORED fluorescence normalized to DAPI cell count); format: cell-based; conditions: formulation similar to that of Example 1, glitazone substituted for pioglitazone
Procedure: Cultured SEB-1 sebocytes (Xia et al., Dermato-Endocrinology, 1(2):92-95 (2009)) were treated with the pioglitazone formulation of Example 1. Sebocytes were cultured in 96 wells plates (2500 cells/well), until confluency. Plates were washed twice with warm sterile PBS and then incubated (at 37° C. and 5% CO2) for another 48 hours after treating them with the pioglitazone formulation in treatment media. After 48 hours, media was carefully removed from the plates and, after washing with PBS, ADIPORED™ reagent (Lonza Walkersville, Inc., Walkersville, Md.) was carefully added into each well. The plates were read for intracellular lipids using a spectrofluorometer. The lipid fluorescence was normalized against the total cell count that was performed using DAPI staining. Following treatment, the lipid content in the treated sebocytes was determined to have increased by 27% compared to control untreated sebocytes. The increased lipid content was confirmed by determining the expression of SREBP-1, a lipid synthesis transcription factor.

| Compound | results of Examples 2 and 3 (KP treatment) repeated with another glitazone formulation (keratosis pilaris (KP)) | results of Example 4 (sebocyte lipid content) repeated with another glitazone formulation (SEB-1 sebocytes) |
| --- | --- | --- |
| COc1ccc2nc(COc3ccc(CC4SC(=O)NC4=O)cc3)n(C)c2c1 (stereo not drawn) [rivoglitazone] | Results similar to those obtained in Examples 2 to 4 using pioglitazone | Results similar to those obtained in Examples 2 to 4 using pioglitazone |
| O=C1NC(=O)C(Cc2ccc3cc(OCc4ccccc4F)ccc3c2)S1 (stereo not drawn) [netoglitazone] | Results similar to those obtained in Examples 2 to 4 using pioglitazone | Results similar to those obtained in Examples 2 to 4 using pioglitazone |
| COc1ccc(Oc2cc(N(C)CCOc3ccc(CC4SC(=O)NC4=O)cc3)ncn2)cc1 (stereo not drawn) [lobeglitazone] | Results similar to those obtained in Examples 2 to 4 using pioglitazone | Results similar to those obtained in Examples 2 to 4 using pioglitazone |
